Source: article PMC4303209, “A novel phosphatidylinositol 3-kinase (PI3K) inhibitor directs a potent FOXO-dependent, p53-independent cell cycle arrest phenotype characterized by the differential induction of a subset of FOXO-regulated genes” (Breast Cancer Research : BCR, 2014)

Test system: MCF-7 breast cancer cells
Assay: Microarray gene expression analysis (Agilent whole human genome 4 x 44K; compound vs DMSO, LIMMA log2 fold change)
Assay type: cell-based
Conditions: cell cycle genes

Oc1cccc(-c2nc(N3CCOCC3)c3oc4ncccc4c3n2)c1 [PI-103]
TUBB3 log2FC (Gene 10381): -0.59
ANAPC10 log2FC (Gene 10393): 0.20
NDRG1 log2FC (Gene 10397): 1.49
GNB2L1 log2FC (Gene 10399): -0.0332
PRMT5 log2FC (Gene 10419): -0.13
MAD2L2 log2FC (Gene 10459): 0.16
TACC3 log2FC (Gene 10460): -0.29
CREB3 log2FC (Gene 10488): -0.0661
MYBBP1A log2FC (Gene 10514): -0.30
CIB1 log2FC (Gene 10519): -0.08
SSSCA1 log2FC (Gene 10534): -0.27
DCTN2 log2FC (Gene 10540): 0.11
SMC2 log2FC (Gene 10592): 0.63
ERN2 log2FC (Gene 10595): -0.68
USP16 log2FC (Gene 10600): 0.68
HEXIM1 log2FC (Gene 10614): -0.43
SPAG5 log2FC (Gene 10615): 0.36
STAMBP log2FC (Gene 10617): 0.27
TXNIP log2FC (Gene 10628): 2.21
PDPN log2FC (Gene 10630): -0.0347
RGS14 log2FC (Gene 10636): 0.71
CTCF log2FC (Gene 10664): -0.22
CGRRF1 log2FC (Gene 10668): 0.54
CGREF1 log2FC (Gene 10669): 0.00665
USP39 log2FC (Gene 10713): -0.0422
NUDC log2FC (Gene 10726): -0.38
PLK4 log2FC (Gene 10733): 0.52
STAG3 log2FC (Gene 10734): 0.43
STAG2 log2FC (Gene 10735): 1.19
NES log2FC (Gene 10763): -0.28
PLK2 log2FC (Gene 10769): -0.93
NEK6 log2FC (Gene 10783): -0.68
SDCCAG8 log2FC (Gene 10806): 0.62
TUBGCP2 log2FC (Gene 10844): 0.037
LILRB1 log2FC (Gene 10859): -0.21
USP19 log2FC (Gene 10869): 0.38
BLCAP log2FC (Gene 10904): -0.47
TXNL4A log2FC (Gene 10907): -0.46
SUGT1 log2FC (Gene 10910): 0.24
GADD45G log2FC (Gene 10912): -0.19
EHMT2 log2FC (Gene 10919): 0.25
BTG3 log2FC (Gene 10950): 0.00788
MAPRE2 log2FC (Gene 10982): -0.34
KIF2C log2FC (Gene 11004): 0.44
TLK2 log2FC (Gene 11011): 0.62
RAB35 log2FC (Gene 11021): -0.44
TDRKH log2FC (Gene 11022): 0.0086
PIM2 log2FC (Gene 11040): -0.54
UBE2C log2FC (Gene 11065): -0.18
TRIOBP log2FC (Gene 11078): 0.53
NUPL2 log2FC (Gene 11097): -0.024
KATNA1 log2FC (Gene 11104): 0.67
PRDM4 log2FC (Gene 11108): 0.26
CIT log2FC (Gene 11113): 0.53
ZWINT log2FC (Gene 11130): -0.23
CDC37 log2FC (Gene 11140): -0.17
LZTS1 log2FC (Gene 11178): -0.98
WDR6 log2FC (Gene 11180): -0.36
RASSF1 log2FC (Gene 11186): 0.72
CEP250 log2FC (Gene 11190): -0.14
PMF1 log2FC (Gene 11243): -0.18
DCTN3 log2FC (Gene 11258): 0.31
TUSC2 log2FC (Gene 11334): -0.50
OIP5 log2FC (Gene 11339): 0.0365
MAPRE1 log2FC (Gene 22919): -0.57
MAPRE3 log2FC (Gene 22924): 0.0211
TRIM32 log2FC (Gene 22954): -0.32
TPX2 log2FC (Gene 22974): -0.00173
AZI1 log2FC (Gene 22994): 0.93
CEP152 log2FC (Gene 22995): 0.55
USP33 log2FC (Gene 23032): 0.88
WAPAL log2FC (Gene 23063): 0.61
TRIM35 log2FC (Gene 23087): 0.20
CLASP2 log2FC (Gene 23122): 0.55
POGZ log2FC (Gene 23126): 0.58
PHF8 log2FC (Gene 23133): -0.18
SMC5 log2FC (Gene 23137): -0.36
FBXL7 log2FC (Gene 23194): 0.0429
PSME4 log2FC (Gene 23198): -0.07
RRS1 log2FC (Gene 23212): -0.91
NUP210 log2FC (Gene 23225): -0.44
PLCB1 log2FC (Gene 23236): 1.31
BOP1 log2FC (Gene 23246): -0.18
NUP160 log2FC (Gene 23279): -0.78
FBXW11 log2FC (Gene 23291): -0.28
UBR2 log2FC (Gene 23304): 0.76
USP22 log2FC (Gene 23326): 0.07
CLASP1 log2FC (Gene 23332): -0.36
PPP1R13B log2FC (Gene 23368): 0.0642
DICER1 log2FC (Gene 23405): -0.87
SIRT1 log2FC (Gene 23411): 1.17
ITGB3BP log2FC (Gene 23421): 0.69
PES1 log2FC (Gene 23481): -0.38
ZFYVE26 log2FC (Gene 23503): 0.40
SCRIB log2FC (Gene 23513): 0.03
CCNDBP1 log2FC (Gene 23582): 0.71
CD2AP log2FC (Gene 23607): 0.81
NUP62 log2FC (Gene 23636): -0.63
RABGAP1 log2FC (Gene 23637): 0.55
PPP1R15A log2FC (Gene 23645): 0.51
POLA2 log2FC (Gene 23649): -0.87
ZNF318 log2FC (Gene 24149): 0.53
RAD54B log2FC (Gene 25788): 0.42
NIPBL log2FC (Gene 25836): 0.88
INTS7 log2FC (Gene 25896): -0.23
AHCTF1 log2FC (Gene 25909): 0.40
SIN3A log2FC (Gene 25942): 0.89
SH2B1 log2FC (Gene 25970): -0.49
EGFL6 log2FC (Gene 25975): 0.03
SENP6 log2FC (Gene 26054): 0.54
FBXO6 log2FC (Gene 26270): 0.37
FBXO5 log2FC (Gene 26271): 0.49
NUPR1 log2FC (Gene 26471): 0.07
AATF log2FC (Gene 26574): -0.41
CKAP2 log2FC (Gene 26586): 0.63
HBP1 log2FC (Gene 26959): 2.74
MLH3 log2FC (Gene 27030): 0.23
MTBP log2FC (Gene 27085): 0.79
TJP3 log2FC (Gene 27134): 0.31
VPS4A log2FC (Gene 27183): -0.29
PDCD4 log2FC (Gene 27250): 1.70
APEX2 log2FC (Gene 27301): -0.66
UBE2S log2FC (Gene 27338): -0.66
EML4 log2FC (Gene 27436): -0.50
PPP2R3B log2FC (Gene 28227): 0.28
MCTS1 log2FC (Gene 28985): -0.21
HIPK2 log2FC (Gene 28996): -0.14
BRD7 log2FC (Gene 29117): 0.53
RACGAP1 log2FC (Gene 29127): 0.55
UHRF1 log2FC (Gene 29128): -0.33
PSMC3IP log2FC (Gene 29893): -0.14
GPSM2 log2FC (Gene 29899): 0.32
SAC3D1 log2FC (Gene 29901): 0.09
RPA4 log2FC (Gene 29935): 0.55
ANAPC4 log2FC (Gene 29945): 0.43
SERTAD1 log2FC (Gene 29950): -0.75
CUZD1 log2FC (Gene 50624): 0.31
PARD6A log2FC (Gene 50855): 0.11
GMNN log2FC (Gene 51053): -0.12
RPS27L log2FC (Gene 51065): 0.28
MLXIPL log2FC (Gene 51085): 0.34
SBDS log2FC (Gene 51119): 0.46
DYNC1LI1 log2FC (Gene 51143): 0.52
ING4 log2FC (Gene 51147): 1.59
TUBE1 log2FC (Gene 51175): 0.0372
LEF1 log2FC (Gene 51176): -0.89
HERC5 log2FC (Gene 51191): 0.75
NUSAP1 log2FC (Gene 51203): 0.74
DUSP13 log2FC (Gene 51207): 0.0185
WAC log2FC (Gene 51322): 0.91
DACT1 log2FC (Gene 51339): 0.04
FZR1 log2FC (Gene 51343): -0.32
TAOK3 log2FC (Gene 51347): 1.14
PRKAG2 log2FC (Gene 51422): -0.54
SNX9 log2FC (Gene 51429): 0.42
ANAPC7 log2FC (Gene 51434): -0.32
LCMT1 log2FC (Gene 51451): 0.00313
